According to ChEMBL document CHEMBL1201862, “PubChem BioAssay data set” (2004):
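96-well plates; 48 h exposure; 5 concentrations. Endpoints by linear interpolation between flanking doses. Not reached: highest tested concentration assigned. GI50: concentration for 50% inhibition of growth.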 The source made the active and inactive calls. Rule as the data show it: active = GI50 up to about 1.1 µM and inactive = higher.

Legend:
Assay in all cases: NCI-60 cell line screen, 48 h
UO-31 = test system: UO-31
EKVX = test system: EKVX
CAKI-1 = test system: CAKI-1
HT-29 = test system: HT-29
TK-10 = test system: TK-10
IGROV-1 = test system: IGROV-1
BT-549 = test system: BT-549
OVCAR-5 = test system: OVCAR-5
KM-20L2 = test system: KM-20L2
COLO 205 = test system: COLO 205
CCRF-CEM = test system: CCRF-CEM
KM12 = test system: KM12
K562 = test system: K562
A498 = test system: A498
UACC-62 = test system: UACC-62
T47D = test system: T47D
SR = test system: SR
SF-539 = test system: SF-539
A549 = test system: A549
Hs-578T = test system: Hs-578T
SW-620 = test system: SW-620
SN12C = test system: SN12C
Malme-3M = test system: Malme-3M
MOLT-4 = test system: MOLT-4
SK-OV-3 = test system: SK-OV-3
SF-295 = test system: SF-295
HOP-62 = test system: HOP-62
NCI-H460 = test system: NCI-H460
SK-MEL-2 = test system: SK-MEL-2
M14 = test system: M14
HOP-92 = test system: HOP-92
NCI/ADR-RES = test system: NCI/ADR-RES
NCI-H522 = test system: NCI-H522
SK-MEL-28 = test system: SK-MEL-28
UACC-257 = test system: UACC-257
786-0 = test system: 786-0
U-251 = test system: U-251
HL-60 = test system: HL-60
LOX IMVI = test system: LOX IMVI
SF-268 = test system: SF-268
HCT-116 = test system: HCT-116
RXF 393 = test system: RXF 393
DU-145 = test system: DU-145
OVCAR-4 = test system: OVCAR-4
ACHN = test system: ACHN
MDA-N = test system: MDA-N
SK-MEL-5 = test system: SK-MEL-5
MDA-MB-435 = test system: MDA-MB-435
NCI-H226 = test system: NCI-H226
HCT-15 = test system: HCT-15
MDA-MB-231 = test system: MDA-MB-231
SNB-75 = test system: SNB-75
SNB-19 = test system: SNB-19
NCI-H23 = test system: NCI-H23
PC-3 = test system: PC-3
OVCAR-8 = test system: OVCAR-8
RPMI-8226 = test system: RPMI-8226
OVCAR-3 = test system: OVCAR-3
HCC 2998 = test system: HCC 2998
MCF7 = test system: MCF7
SNB-78 = test system: SNB-78
DMS-273 = test system: DMS-273
LXFL 529 = test system: LXFL 529
M19-MEL = test system: M19-MEL

## COc1ccc(/C=C/c2cc(OC)c(OC)c(OC)c2)cc1O [E-COMBRETASTATIN A-4]
UO-31
  GI50: 1130 nM (inactive)
EKVX
  GI50: 8730 nM (inactive)
CAKI-1
  GI50: 6710 nM (inactive)
HT-29
  GI50: 7890 nM (inactive)
TK-10
  GI50: 13300 nM (inactive)
IGROV-1
  GI50: 3170 nM (inactive)
BT-549
  GI50: 8950 nM (inactive)
OVCAR-5
  GI50: 22200 nM (inactive)
KM-20L2
  GI50: 8710 nM (inactive)

## CO[C@H]1C[C@H](O[C@H]2CC[C@]3(C=O)[C@H]4CC[C@]5(C)[C@@H](C6=CC(=O)OC6)CC[C@]5(O)[C@@H]4CC[C@]3(O)C2)O[C@H](C)[C@H]1O[C@@H]1O[C@H](CO[C@@H]2O[C@H](CO)[C@@H](O)[C@H](O)[C@H]2O)[C@@H](O)[C@H](O)[C@H]1O
COLO 205
  GI50: 103 nM (active)
UO-31
  GI50: 40.5 nM (active)
CCRF-CEM
  GI50: > 100000 nM (inactive)
KM12
  GI50: 104 nM (active)
K562
  GI50: 85.7 nM (active)
A498
  GI50: 89.1 nM (active)
UACC-62
  GI50: 223 nM (active)
T47D
  GI50: 52.7 nM (active)
SR
  GI50: 18.8 nM (active)
SF-539
  GI50: 35.3 nM (active)
EKVX
  GI50: 20.5 nM (active)
CAKI-1
  GI50: 22.3 nM (active)
A549
  GI50: < 13.1 nM (active)
Hs-578T
  GI50: 27.8 nM (active)
SW-620
  GI50: 59.3 nM (active)
SN12C
  GI50: 28.9 nM (active)
Malme-3M
  GI50: 58.8 nM (active)
MOLT-4
  GI50: 21.5 nM (active)
SK-OV-3
  GI50: 54.3 nM (active)
SF-295
  GI50: 39.5 nM (active)
HOP-62
  GI50: 15.8 nM (active)
NCI-H460
  GI50: < 13.2 nM (active)
SK-MEL-2
  GI50: 235 nM (active)
M14
  GI50: 147 nM (active)
HOP-92
  GI50: 84.5 nM (active)
HT-29
  GI50: 44.2 nM (active)
TK-10
  GI50: 27.9 nM (active)
IGROV-1
  GI50: 25.9 nM (active)
NCI/ADR-RES
  GI50: 34 nM (active)
BT-549
  GI50: 39 nM (active)
NCI-H522
  GI50: 13.9 nM (active)
SK-MEL-28
  GI50: 349 nM (active)
OVCAR-5
  GI50: 67.1 nM (active)
UACC-257
  GI50: 239 nM (active)
786-0
  GI50: 27.2 nM (active)
U-251
  GI50: 65.8 nM (active)
HL-60
  GI50: 36.1 nM (active)
LOX IMVI
  GI50: 37.3 nM (active)
SF-268
  GI50: 35.6 nM (active)
HCT-116
  GI50: 23.9 nM (active)
RXF 393
  GI50: 25.1 nM (active)
DU-145
  GI50: 15.6 nM (active)
OVCAR-4
  GI50: 28.1 nM (active)
ACHN
  GI50: 18.6 nM (active)
MDA-N
  GI50: 128 nM (active)
SK-MEL-5
  GI50: 37 nM (active)
MDA-MB-435
  GI50: 166 nM (active)
NCI-H226
  GI50: 171 nM (active)
HCT-15
  GI50: 40.5 nM
MDA-MB-231
  GI50: 355 nM (active)
SNB-75
  GI50: 110 nM (active)
SNB-19
  GI50: 186 nM (active)
NCI-H23
  GI50: 16 nM (active)
PC-3
  GI50: 38 nM (active)
OVCAR-8
  GI50: 43.4 nM (active)
RPMI-8226
  GI50: 139 nM (active)
OVCAR-3
  GI50: 24.1 nM (active)
HCC 2998
  GI50: 158 nM (active)
MCF7
  GI50: 54.6 nM (active)

## [N-]=[N+]=Nc1ccc(CCN2CCN(c3cccc(C(F)(F)F)c3)CC2)cc1I
COLO 205
  GI50: > 100000 nM (inactive)
UO-31
  GI50: 21100 nM (inactive)
CCRF-CEM
  GI50: 54100 nM (inactive)
KM12
  GI50: 43800 nM (inactive)
K562
  GI50: 52600 nM (inactive)
A498
  GI50: > 100000 nM (inactive)
UACC-62
  GI50: > 100000 nM (inactive)
SNB-78
  GI50: > 100000 nM (inactive)
SR
  GI50: 35100 nM (inactive)
SF-539
  GI50: > 100000 nM (inactive)
EKVX
  GI50: > 100000 nM (inactive)
CAKI-1
  GI50: 40100 nM (inactive)
A549
  GI50: 95700 nM (inactive)
SW-620
  GI50: 70300 nM (inactive)
SN12C
  GI50: 49000 nM (inactive)
Malme-3M
  GI50: > 100000 nM (inactive)
MOLT-4
  GI50: 40400 nM (inactive)
SK-OV-3
  GI50: > 100000 nM (inactive)
SF-295
  GI50: > 100000 nM (inactive)
NCI-H460
  GI50: 62400 nM (inactive)
SK-MEL-2
  GI50: 38400 nM (inactive)
M14
  GI50: > 100000 nM (inactive)
HT-29
  GI50: 29400 nM (inactive)
TK-10
  GI50: > 100000 nM (inactive)
DMS-273
  GI50: 72600 nM (inactive)
NCI-H522
  GI50: 27700 nM (inactive)
SK-MEL-28
  GI50: > 100000 nM (inactive)
OVCAR-5
  GI50: 34000 nM (inactive)
UACC-257
  GI50: 96800 nM (inactive)
786-0
  GI50: > 100000 nM (inactive)
U-251
  GI50: > 100000 nM (inactive)
HL-60
  GI50: 12800 nM (inactive)
LOX IMVI
  GI50: > 100000 nM (inactive)
SF-268
  GI50: > 100000 nM (inactive)
HCT-116
  GI50: 71100 nM (inactive)
RXF 393
  GI50: 33100 nM (inactive)
OVCAR-4
  GI50: > 100000 nM (inactive)
ACHN
  GI50: > 100000 nM (inactive)
LXFL 529
  GI50: 50000 nM (inactive)
KM-20L2
  GI50: 31300 nM (inactive)
SK-MEL-5
  GI50: 65800 nM (inactive)
NCI-H226
  GI50: > 100000 nM (inactive)
M19-MEL
  GI50: 83000 nM (inactive)
HCT-15
  GI50: 25200 nM
SNB-75
  GI50: 41700 nM (inactive)
SNB-19
  GI50: > 100000 nM (inactive)
NCI-H23
  GI50: 46600 nM (inactive)
OVCAR-8
  GI50: > 100000 nM (inactive)
RPMI-8226
  GI50: 13000 nM (inactive)
OVCAR-3
  GI50: 78900 nM (inactive)
